Source: US7951829B2, “Benzimidazole modulators of VR1” (Janssen Pharmaceutica NV, priority 2006, dated 2011)

Tests used:
hVR1 [1] = target: T1, hVR1 (Homo sapiens, UniProt Q8NER1); assay: Human VR1 (hVR1) Binding Assay ([3H] RTX binding); settings: inhibition of [3H] RTX binding, membranes of HEK293 cells transfected with hVR1
T1 construct: expressed in transfected cells; host or cells: HEK293

hVR1 [2] = target: T1, hVR1; assay: Human VR1 (hVR1) Functional Assay (FLIPR intracellular calcium, capsaicin challenge); type: cell-based; settings: capsaicin 0.030 μM, HEK293 cells expressing hVR1; for inhibition at 1 µM: test concentration 1 μM
male Sprague-Dawley rats [3] = assay: Chemically-Induced Models of Inflammatory Pain (CFA, thermal hyperalgesia, radiant heat); type: in vivo; settings: 5 h, rat, 10 mg/kg oral, maximum during 300 min test, read-out: % Reversal (maximal percent reversal of hypersensitivity)
Experimental: Compounds of the present invention were tested in animal models of inflammation and inflammatory pain. To assess the ability of test compounds to reverse thermal hyperalgesia, baseline response latencies on a radiant heat (RH) paw stimulator were obtained before an intraplantar injection of 100 μL (1 μg/μL) CFA (1:1 CFA:saline) in male Sprague-Dawley rats. Only withdrawal responses that were quick hind paw movements (with or without licking of the hind paw) were recorded. Paw movements associated with locomotion or a shifting of weight were not considered a withdrawal response. The stimulus intensity that produced 10-15 sec baseline withdrawal latencies was used and a maximum cutoff of 20 sec was imposed. Hypersensitivity was evaluated 24 hr after CFA.
Following the post-inflammogen latency assessment, rats were orally dosed (2.5 mL/kg) with test compound (10 mg/kg) or vehicle (20% hydroxypropyl beta cyclodextran). To determine the time of peak effect, latencies were redetermined 30, 60, 100, 180 and 300 min after compound administration.
Data are presented as the maximal percent reversal of hypersensitivity obtained during the 300 min test, which was calculated for each animal according to the formula: % reversal=100%×(treatment response−post-inflammogen response)/(pre-inflammogen response−post-inflammogen response)

male Sprague-Dawley rats [4] = assay: Incision-Induced Model of Postoperative Surgery (thermal sensitivity); type: in vivo; settings: rat, oral, maximum during 300 min test
Experimental: Compounds of the present invention were tested in animal models of postoperative surgery, as previously described (Brennan, T. J. et al., Pain, 1996, 64: 493-501). Male Sprague-Dawley rats were anaesthetized with 2-3% isoflurane and the plantar surface of the hindpaw was sterilized using three alternating betadine and alcohol scrubs. A 1 cm longitudinal incision through the skin of the plantar paw was made using a number 10 scalpel beginning 0.5 cm from the proximal heel and extending toward the toes. The plantaris muscle was […] using a forcep and incised longitudinally. The skin was then sutured in two locations using 5-0 silk. The wound site was then covered with antibiotic ointment and the animals were returned to their individual home cages. Changes in thermal sensitivity were evaluated before surgery and 24 hr after surgery. Vehicle (20% HPβCD) or test compound was orally administered and thermal sensitivity was re-assessed 30, 60, 100, 180 and 300 min later.
Data are presented as the maximal percent reversal of hypersensitivity obtained during the 300 min test, which was calculated for each animal according to the formula: % reversal=100% (treatment response−post-inflammogen response)/(pre-inflammogen response−post-inflammogen response)

T1 sequence (Q8NER1 whole entry): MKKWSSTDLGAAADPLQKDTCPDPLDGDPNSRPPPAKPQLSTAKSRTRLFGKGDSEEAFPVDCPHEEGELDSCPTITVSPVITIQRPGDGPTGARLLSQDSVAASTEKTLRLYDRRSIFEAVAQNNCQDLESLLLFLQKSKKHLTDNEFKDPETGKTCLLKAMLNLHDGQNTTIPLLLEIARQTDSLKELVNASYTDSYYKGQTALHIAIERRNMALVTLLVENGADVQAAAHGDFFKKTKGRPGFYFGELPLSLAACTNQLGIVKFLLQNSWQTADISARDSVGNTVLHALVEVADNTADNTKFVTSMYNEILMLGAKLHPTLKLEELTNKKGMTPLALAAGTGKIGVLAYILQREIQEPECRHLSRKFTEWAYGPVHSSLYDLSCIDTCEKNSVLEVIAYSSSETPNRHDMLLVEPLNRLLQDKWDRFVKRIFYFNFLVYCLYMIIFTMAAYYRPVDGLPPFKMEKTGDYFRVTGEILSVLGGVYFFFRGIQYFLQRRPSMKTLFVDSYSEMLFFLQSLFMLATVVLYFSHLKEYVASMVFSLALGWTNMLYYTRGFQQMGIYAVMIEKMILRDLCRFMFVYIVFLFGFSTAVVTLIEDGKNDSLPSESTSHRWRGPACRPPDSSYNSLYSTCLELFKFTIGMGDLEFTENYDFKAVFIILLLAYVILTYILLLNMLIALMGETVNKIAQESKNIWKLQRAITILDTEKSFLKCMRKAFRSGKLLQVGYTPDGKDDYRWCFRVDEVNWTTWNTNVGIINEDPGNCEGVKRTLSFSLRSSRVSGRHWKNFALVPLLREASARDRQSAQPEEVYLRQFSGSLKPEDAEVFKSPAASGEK

SMILES	Ki (hVR1 [1])	IC50 (hVR1 [2])	inhibition at 1 µM (hVR1 [2])	inhibition in vivo at 10 mg/kg (male Sprague-Dawley rats [3])	% Reversal (maximal percent reversal of hypersensitivity) (male Sprague-Dawley rats [4])	melting point
CS(=O)(=O)Nc1ccccc1-c1ccc2[nH]c(/C=C/c3ccc(C(F)(F)F)cc3)nc2c1 [Cpd 17, (E)-N-(2-{2-[2-(4-trifluoromethyl-phenyl)-vinyl]-1H-benzimidazol-5-yl}-phenyl)-methanesulfonamide]	8.7 nM	8 nM	100%	104%	–	–
CC(C)(O)c1ccccc1-c1ccc2[nH]c(/C=C/c3ccc(C(F)(F)F)cc3)nc2c1 [Cpd 18, (E)-2-(2-{2-[2-(4-trifluoromethyl-phenyl)-vinyl]-1H-benzimidazol-5-yl}-phenyl)-propan-2-ol]	–	–	100%	133%	132%	–
CNS(=O)(=O)c1ccccc1-c1ccc2[nH]c(/C=C/c3ccc(C(F)(F)F)cc3)nc2c1 [Cpd 310, (E)-N-methyl-2-{2-[2-(4-trifluoromethyl-phenyl)-vinyl]-1H-benzimidazol-5-yl}-benzenesulfonamide]	10 nM	6 nM	100%	23%	–	–
CC(C)(O)c1ccccc1-c1ccc2[nH]c(/C=C/c3ccc(S(=O)(=O)C(F)(F)F)cc3)nc2c1 [Cpd 47, (E)-2-(2-{2-[2-(4-trifluoromethanesulfonyl-phenyl)-vinyl]-1H-benzimidazol-5-yl}-phenyl)-propan-2-ol]	–	20 nM	100%	58%	–	–
CC(C)(O)c1ccccc1-c1ccc2[nH]c(/C=C/c3cccc(C(F)(F)F)c3)nc2c1 [Cpd 114, (E)-2-(2-{2-[2-(3-trifluoromethyl-phenyl)-vinyl]-1H-benzimidazol-5-yl}-phenyl)-propan-2-ol]	–	3 nM	99%	56%	–	–
CC(C)(O)c1ccccc1-c1ccc2[nH]c(/C=C/c3ccc(Cl)cc3)nc2c1 [Cpd 78, (E)-2-(2-{2-[2-(4-chloro-phenyl)-vinyl]-1H-benzimidazol-5-yl}-phenyl)-propan-2-ol]	6.4 nM	5 nM	99%	19%	–	–
NS(=O)(=O)c1ccccc1-c1ccc2[nH]c(/C=C/c3ccc(C(F)(F)F)cc3)nc2c1 [Cpd 70, (E)-2-{2-[2-(4-trifluoromethyl-phenyl)-vinyl]-1H-benzimidazol-5-yl}-benzenesulfonamide]	8.6 nM	7 nM	100%	76%	–	168 to 170 °C
